Entries after “also recorded” stand apart in the source; their conditions may differ.
What was measured:
Format in all cases: cell-based
[1] = system: PLK-1; experiment: Western blot of Plk-1 in HCT116 cells; conditions: HCT116, 48 h; listed as 콜치신
[2] = system: PLK-1; experiment: PLK-1 ELISA in HCT116 cells; conditions: HCT116, 48 h
[3] = system: human colorectal cancer cells [인간 대장암 세포]; experiment: Apoptosis induction in human colorectal cancer cells (Western blot); conditions: listed as 콜치신
[4] = system: human colorectal cancer cells HCT116 [인간 대장암 세포, HCT116]; experiment: alamarBlue cell proliferation assay, human colorectal cancer cells HCT116; conditions: 48 h, concentration dependence (Fig. 3: 100nM-1μM; Fig. 9)

COc1cc2c(c(OC)c1OC)-c1ccc(OC)c(=O)cc1[C@@H](NC(C)=O)CC2 [H11-G04, Colchicine]
inhibition of Plk-1 expression [1]: 콜치신이 Plk-1의 발현을 억제함; also recorded: Plk-1의 발현도 역시 억제된다
Plk-1 concentration [2]: 콜치신에 의해 Plk-1 농도가 감소함
induction of apoptosis [3]: 콜치신이 인간 대장암 세포의 사멸(apoptosis)를 유도함; also recorded: 세포사멸을 유도
inhibition of cell proliferation [4]: 세포증식이 농도에 따라 유의적으로 억제되는 효과가 나타났다

Source: patent KR20140086355A, “콜치신 유도체를 유효성분으로 포함하는 암의 예방 또는 치료용 조성물” (한국화학연구원, priority 2012, dated 2014)
